According to PubChem BioAssay (NCI):
Values joined by “and” are separate entries in the source; they are usually repeats but may differ in a detail not shown here. Identical values can stand only once.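 Step 1: Grow cells in 96-well plates. Step 2: Expose to compound for 48 hours at 5 concentrations. Step 3: Interpolate endpoints linearly; if unreached, use highest concentration. Abbreviation: GI50, concentration required for 50% inhibition of growth. TGI: total growth inhibition.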

How the values were obtained:
Assay in all cases: NCI-60 cell line screen, 48 h
[1] = test system: HOP-92 NSCLC
[2] = test system: NCI-H23 lung
[3] = test system: SN12C renal
[4] = test system: UO-31 renal
[5] = test system: CAKI-1 renal
[6] = test system: MDA-MB-231 breast
[7] = test system: K-562 leukemia
[8] = test system: SNB-19 CNS
[9] = test system: HL-60(TB) leukemia
[10] = test system: LOX IMVI melanoma

Row | SMILES | GI50 [1] | TGI [1] | GI50 [2] | TGI [2] | GI50 [3] | TGI [3] | GI50 [4] | TGI [4] | GI50 [5] | TGI [5] | GI50 [6] | TGI [6] | GI50 [7] | TGI [7] | GI50 [8] | TGI [8] | GI50 [9] | TGI [9] | GI50 [10] | TGI [10]
1 | C=C(CC(=O)O)C(=O)O (tested in a mixture with another compound) | > 50 µg/mL | > 50 µg/mL | > 50 µg/mL | > 50 µg/mL | > 50 µg/mL | > 50 µg/mL | > 50 µg/mL | > 50 µg/mL | > 50 µg/mL | > 50 µg/mL | > 50 µg/mL | > 50 µg/mL | > 50 µg/mL | > 50 µg/mL | > 50 µg/mL | > 50 µg/mL | 8.94 µg/mL | 17.2 µg/mL | > 50 µg/mL | > 50 µg/mL
2 | CC(C)n1nc(-c2ccc3oc(N)nc3c2)c2c(N)ncnc21 | < 0.01 µM | < 0.01 µM | 0.0268 µM and 0.0176 µM | 8.16 µM and 2.39 µM | < 0.0114 µM and 0.0113 µM | 2.69 µM and 8.69 µM | < 0.01 µM | 0.0402 µM and 0.0898 µM | < 0.0157 µM and 0.0161 µM | 0.725 µM and 0.265 µM | 0.0165 µM and 0.0211 µM | 1.97 µM and 1.7 µM | 0.0431 µM and 0.0376 µM | > 100 µM | 0.0336 µM and 0.027 µM | 1.94 µM and 1.33 µM | 0.0869 µM and 0.168 µM | 12.3 µM and 11.2 µM | 0.0127 µM and 0.0174 µM | 1.33 µM and 1.64 µM
3 | CCOC(=O)c1oc2ccc([N+](=O)[O-])c3c2c1CCC3 | – | 71 µM | – | > 100 µM | – | > 100 µM | – | > 100 µM | – | > 77.5 µM | – | > 100 µM | – | > 100 µM | – | > 89.6 µM | – | > 100 µM | – | > 88.1 µM
4 | C/C(=N\N=C(\[Se])N(C)C)c1ccccn1 | – | 13.1 µM | – | 11 µM | – | 14.9 µM | – | 13.9 µM | – | 16.1 µM | – | 30.7 µM | – | 23.6 µM | – | 15.9 µM | – | 0.343 µM | – | 12.8 µM
5 | Cc1cc2nc3cc(C)c(N)cc3[n+](-c3ccccc3)c2cc1N | 3.88 µM | 27.8 µM | 2.77 µM | > 63.5 µM | 1.59 µM | > 23 µM | > 100 µM | > 100 µM | > 100 µM | > 100 µM | 20.5 µM | > 100 µM | 3.39 µM | > 100 µM | 2.06 µM | > 100 µM | 4.92 µM | > 100 µM | 4.78 µM | > 100 µM
6 | COc1cc(N2CCN(C(C)C)CC2)ccc1Nc1nc(Nc2cccc(F)c2C(=O)O)c2cc[nH]c2n1 | 1.06 µM | > 25 µM | > 25 µM | > 25 µM | > 25 µM | > 25 µM | > 25 µM | > 25 µM | > 25 µM | > 25 µM | > 25 µM | > 25 µM | > 25 µM | > 25 µM | > 25 µM | > 25 µM | > 25 µM | > 25 µM | > 25 µM | > 25 µM
7 | CN(C)CC(C(=O)Cc1ccccc1)c1ccccc1 (stereo not given) | 2.78 µM | 7.5 µM | 12.2 µM | 30.5 µM | 3.04 µM | 11 µM | 1.69 µM | 3.32 µM | 1.57 µM | 3.01 µM | 3.48 µM | 11 µM | 1.62 µM | > 100 µM | 15 µM | 30 µM | 1.83 µM | 5.75 µM | 1.39 µM | 3.04 µM
8 | COc1cc2ncnc(Nc3ccc4c(cnn4Cc4ccccc4)c3)c2cc1OC | 0.434 µM | > 25 µM | > 25 µM | > 25 µM | > 17 µM | > 25 µM | 3.96 µM | > 25 µM | 0.385 µM | > 25 µM | 7.13 µM | > 25 µM | 7.27 µM | > 19.7 µM | > 25 µM | > 25 µM | 12.5 µM | > 21 µM | > 19.4 µM | > 25 µM
9 | N=C(N)c1ccc(NCCOCCNc2ccc(C(=N)N)cc2)cc1 | 15.4 µM | 59.8 µM | 6.91 µM | > 100 µM | 4.28 µM | > 100 µM | 47.2 µM | > 100 µM | > 100 µM | > 100 µM | > 100 µM | > 100 µM | 21.3 µM | > 100 µM | 27.3 µM | > 100 µM | 60.9 µM | > 100 µM | > 100 µM | > 100 µM
